Source: publication PMC7246003 (Medicinal Chemistry Research, 2020)
pIC50: −log10 of the molar value. Where two headings read alike, the source gives them in different places.

Legend:
[1] = target: T1, IAV RdRp from A/PR/8/34/H1N1 strain (Influenza A virus, UniProt P03428+P03431); details: inhibiting the transcriptional activity of viral polymerase; ref Pagadala [2019]; cited from earlier work
[2] = target: T1, IAV RdRp from A/PR/8/34/H1N1 strain; assay type: biochemical, influenza virus A/PR/8/34/H1N1

Compound | pIC50 [1] | IC25 [2] | pIC50 [2]
Cc1cn([C@H]2C[C@H](N=[N+]=[N-])[C@@H](CO[P@](=O)(O)O[P@](=O)(O)OP(=O)(O)O)O2)c(=O)[nH]c1=O [3′-azido-3′-deoxy-thymidine-5′-triphosphate] | 5.95 | – | –
5′-Dimethoxytrityl-2′-tosyl-N2-isobutyryl-guanosine [Compound 7] | – | 250 nM | 6.17
Nc1nc2c(ncn2[C@@H]2O[C@H](COP(=O)(O)OP(=O)(O)OP(=O)(O)O)[C@@H](O)[C@H]2F)c(=O)[nH]1 [Compound 12, 2′-deoxy-2′-fluoroguanosine 5′-triphosphate] | 5.95 | – | –
